Reference: patent US8252841B2, “Methods of inhibiting bacterial virulence and compounds relating thereto” (priority 2007, dated 2012)
Several values for one entry are separate records, joined by “and”; a condition that tells them apart may be missing. Equal entries are not always repeated. Entries after “also recorded” stand apart in the source; their conditions may differ.

Legend:
EHEC = system: EHEC; set-up: species or system New Zealand White rabbits; settings: rabbit, in vivo
[1] = system: Salmonella typhimurium strain SL1344; format: cell-based
QseC [2] = target: T1, QseC (Escherichia coli O157:H7, UniProt Q8X524); assay: Binding of tritiated norepinephrine to QseC in liposomes; set-up: species or system E. coli; settings: 5 μM tritiated NE
T1 construct: His (C); made in house; host or cells: E. coli (arabinose-induced, pVS155), nickel column purification
T1 sequence (Q8X524 whole entry): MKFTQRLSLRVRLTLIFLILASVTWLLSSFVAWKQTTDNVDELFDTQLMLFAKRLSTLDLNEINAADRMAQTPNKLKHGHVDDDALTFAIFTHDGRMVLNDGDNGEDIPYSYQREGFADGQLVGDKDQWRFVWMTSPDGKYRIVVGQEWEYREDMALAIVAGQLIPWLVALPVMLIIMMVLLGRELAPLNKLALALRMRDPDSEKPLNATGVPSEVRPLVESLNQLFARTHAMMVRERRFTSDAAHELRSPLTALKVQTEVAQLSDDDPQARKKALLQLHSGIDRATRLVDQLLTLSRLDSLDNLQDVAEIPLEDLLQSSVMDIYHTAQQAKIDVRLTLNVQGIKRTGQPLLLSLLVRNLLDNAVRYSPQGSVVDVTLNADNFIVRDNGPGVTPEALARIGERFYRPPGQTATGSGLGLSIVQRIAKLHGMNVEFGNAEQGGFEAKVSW

EHEC strain 8624 [3] = format: cell-based, enterohemorrhagic E. coli (EHEC)
EHEC AE lesion formation = assay: Fluorescein actin staining (FAS) test, AE lesion formation on HeLa cells; format: cell-based, enterohemorrhagic E. coli (EHEC)
[4] = system: bacterial cells (strain MCAmp); assay: Secondary screen with bla::lacZ chromosomal reporter to eliminate toxic compounds and general transcription inhibitors
[5] = system: F. tularensis virulence genes; format: cell-based, Francisella tularensis
QseC [6] = target: T1, QseC; assay: QseC autophosphorylation in liposomes; format: biochemical, E. coli
F. tularensis strain LVS = format: cell-based, Francisella tularensis
[7] = system: EHEC virulence genes (ler, eae, flhDC, stx2A); format: cell-based, enterohemorrhagic E. coli (EHEC)
[8] = system: β1, β2 and β3 adrenergic receptors; assay: Live-cell intracellular cAMP (EPAC-based BRET reporter) in HEK293 cells; set-up: species or system human
[9] = system: S. typhimurium strain SL1344; set-up: species or system mice (129×1/SvJ); settings: mouse, in vivo
[10] = system: F. tularensis SCHU S4 in J774 murine macrophages; format: cell-based, Francisella tularensis
[11] = Pharmacokinetic analysis in mice
[12] = Toxicology studies in mice; settings: 20 mg/kg oral gavage daily for 5 days
sifA virulence gene = format: cell-based, Salmonella typhimurium
EHEC strain 8624 [13] = assay: Western blot of EHEC secreted proteins EspA and EspB; format: cell-based, enterohemorrhagic E. coli (EHEC); settings: 50 μM epinephrine plus 5 nM or 5 pM LED209
[14] = system: F. tularensis strain SCHU S4; settings: mouse, in vivo
[15] = CD-1 female mice, 20, 10 and 5 mg/kg IV bolus

CC(=O)Nc1ccc(S(=O)(=O)Nc2ccccc2)cc1
melting point: 209 to 210 °C

O=S(=O)(Nc1ccccc1)c1ccc(NC(=S)Nc2ccccc2)cc1 [LED209, N-phenyl-4-[[(phenylamino)thioxomethyl]amino]benzenesulfonamide]
EHEC colonization of the intestine (EHEC): modest (and non-statistically significant) reduction
EHEC colonization, colon (EHEC; 20 mg/kg): only a mild non-statistically significance difference
EHEC colonization, ileum and cecum (EHEC; 20 mg/kg): no differences between treated and untreated animals
S. typhimurium growth in vitro [1]: does not hinder growth; also recorded: did not influence
binding of norepinephrine to QseC (QseC [2]; 5 pM LED209): inhibits binding; also recorded: directly antagonized
binding of norepinephrine to QseC (QseC [2]; 5 fM LED209): does not
EHEC growth (EHEC strain 8624 [3]): does not hinder growth; also recorded: does not kill or hinder EHEC growth
EHEC AE lesion formation on cultured epithelial cells (EHEC AE lesion formation; 5 pM): abolished
AE lesions (pedestals) (EHEC AE lesion formation; 5 μM and 5 pM): There are no pedestals
toxicity against bacterial cells [4]: no toxicity against bacterial cells
expression of F. tularensis virulence genes, including qseC [5]: decreased
QseC autophosphorylation (QseC [6]; in response to 50 μM epinephrine, 5 pM LED209): inhibited
F. tularensis growth (F. tularensis strain LVS): does not hinder growth
QseC-dependent virulence gene expression in response to AI-3 [7]: inhibited
QseC-dependent virulence gene expression in response to epinephrine [7]: inhibited
expression of the stxAB genes [7]: decreases
trigger the EHEC SOS response [7]: does not
block of activation by β-adrenergic-specific agonists (cAMP generation) ([8]; 5 μM with dobutamine, terbutaline or BRL37344): nor does it block the activation
activation of β adrenergic receptors (cAMP generation) ([8]; 5 μM, no agonist): does not activate any of the 3 classes of β adrenergic receptors
interference with adrenergic signaling ([8]; live cell-based assays): does not interfere with mammalian adrenergic signaling; also recorded: not influence signaling
reduction of S. typhimurium cfus recovered from spleens and livers [9]: ~10 fold
survival of infected mice 24 hours after infection [9]: 80%
survival of infected mice up to day 12 [9]: 20%
reduction of F. tularensis SCHU-S4 recovered from macrophages [10]: 10 fold
AUC versus dose [11, 15]: increases proportionally with dose
linearity of pharmacokinetics [11, 15]: linear
bioavailability ([11]; female, CD-1, mouse, plasma, oral, 20 mg/kg): ~70%
oral bioavailability (in words) ([11]; mice): orally bioavailable
pathology of duodenum, colon, liver, kidney, spleen and heart sections [12]: did not reveal any observable pathology
mice weights ([12]; vs vehicle): no significant differences
organ weights ([12]; vs vehicle): no significant differences in the organ weights
expression of the sifA virulence gene (sifA virulence gene): diminished
secretion of EspA and EspB (EHEC strain 8624 [13]): inhibited the secretion
deaths of mice treated with LED209 alone ([14]; female, C3H HeN, po, 20 mg/kg): none of the mice treated with LED209 alone died
survival of infected mice at 175 hours post-infection [14]: 60% and 75%
overt toxicity ([14]; po, 20 mg/kg): no overt toxicity
survival of infected mice 9 days post-infection ([14]; po, 20 mg/kg): 80%

Cc1ccc(N(CC2=NCCN2)c2cccc(O)c2)cc1 [phentolamine, reference compound]
binding of norepinephrine to QseC (QseC [2]; 50 μM adrenergic antagonist): inhibited; also recorded: antagonizes this binding
QseC autophosphorylation (QseC [6]; adrenergic antagonist): block QseC autophosphorylation

CC(C)NCC(O)COc1cccc2ccccc12 (centres unmarked) [propranolol, reference compound]
binding of norepinephrine to QseC (QseC [2]; 50 μM adrenergic antagonist): has no effect on QseC
